{
  "source": "patent US20110160054A1",
  "about": "“Pesticidal Mixtures Comprising Cyanosulfoximine Compounds and Spinetoram” (BASF SE, priority 2008, published 2011)",
  "assay_type_in_all_cases": "cell-based",
  "conditions_in_all_cases": "single compound, 7 days after inoculation",
  "key": {"Septoria tritici": {"test_system": "Septoria tritici", "assay": "Activity against leaf blotch on wheat caused by Septoria tritici, microtiter test (Septtr)"}, "Phytophthora infestans": {"test_system": "Phytophthora infestans"}, "Pyricularia oryzae": {"test_system": "Pyricularia oryzae"}, "Botrytis cinerea": {"test_system": "Botrytis cinerea", "assay": "Activity against the grey mold Botrytis cinerea in the microtiterplate test (Botrci)"}},
  "note": "Read-outs that look alike come from different tables or passages of the source.",
  "data": [
    {"compound": "propineb", "values": [
      {"measurement": "Observed efficacy", "setting": "Septoria tritici; 1 ppm", "value": 25, "unit": "%"},
      {"measurement": "Observed efficacy", "setting": "Phytophthora infestans; 1 ppm", "value": 23, "unit": "%"}
    ]},
    {"compound": "CC(C)CC(C)c1sccc1NC(=O)c1cn(C)nc1C(F)(F)F", "note": "(centres unmarked) [penthiopyrad]", "values": [
      {"measurement": "Observed efficacy", "setting": "Pyricularia oryzae; 0.25 ppm", "value": 6, "unit": "%"},
      {"measurement": "Observed efficacy", "setting": "Pyricularia oryzae; 1 ppm", "value": 55, "unit": "%"},
      {"measurement": "Observed efficacy", "setting": "Botrytis cinerea; 0.063 ppm", "value": 32, "unit": "%"},
      {"measurement": "Observed efficacy", "setting": "Botrytis cinerea; 0.25 ppm", "value": 45, "unit": "%"}
    ]},
    {"compound": "CC1(C(=O)Nc2ccc(O)c(Cl)c2Cl)CCCCC1", "note": "[Fenhexamid, fenhexamid]", "values": [
      {"measurement": "Observed efficacy", "setting": "Septoria tritici; 16 ppm", "value": 33, "unit": "%"}
    ]},
    {"compound": "mancozeb", "values": [
      {"measurement": "Observed efficacy", "setting": "Botrytis cinerea; 16 ppm", "value": 46, "unit": "%"}
    ]},
    {"compound": "COC(=O)N(OC)c1ccccc1COc1ccn(-c2ccc(Cl)cc2)n1", "note": "[Pyraclostrobin, pyraclostrobin]", "values": [
      {"measurement": "Observed efficacy", "setting": "Botrytis cinerea; 0.25 ppm", "value": 4, "unit": "%"}
    ]},
    {"compound": "Fc1ccc([C@]2(Cn3cncn3)O[C@H]2c2ccccc2Cl)cc1", "note": "(racemic) [Epoxiconazol, epoxiconazole]", "values": [
      {"measurement": "Observed efficacy", "setting": "Botrytis cinerea; 0.25 ppm", "value": 25, "unit": "%"}
    ]},
    {"compound": "OC(Cc1ccccc1Cl)(Cn1nc[nH]c1=S)C1(Cl)CC1", "note": "(centres unmarked) [Prothioconazol, prothioconazole]", "values": [
      {"measurement": "Observed efficacy", "setting": "Botrytis cinerea; 0.063 ppm", "value": 19, "unit": "%"}
    ]},
    {"compound": "Spinetoram", "values": [
      {"measurement": "Observed efficacy", "setting": "Septoria tritici; 16 ppm", "value": 0, "unit": "%"},
      {"measurement": "Observed efficacy", "setting": "Septoria tritici; 63 ppm", "value": 4, "unit": "%"},
      {"measurement": "Observed efficacy", "setting": "Pyricularia oryzae; 4 ppm", "value": 2, "unit": "%"},
      {"measurement": "Observed efficacy", "setting": "Pyricularia oryzae; 16 ppm", "value": 2, "unit": "%"},
      {"measurement": "Observed efficacy", "setting": "Pyricularia oryzae; 63 ppm", "value": 34, "unit": "%"},
      {"measurement": "Observed efficacy", "setting": "Phytophthora infestans; 4 ppm", "value": 2, "unit": "%"},
      {"measurement": "Observed efficacy", "setting": "Phytophthora infestans; 16 ppm", "value": 24, "unit": "%"},
      {"measurement": "Observed efficacy", "setting": "Botrytis cinerea; 0.25 ppm", "value": 1, "unit": "%"},
      {"measurement": "Observed efficacy", "setting": "Botrytis cinerea; 4 ppm", "value": 1, "unit": "%"},
      {"measurement": "Observed efficacy", "setting": "Botrytis cinerea; 16 ppm", "value": 0, "unit": "%"},
      {"measurement": "Observed efficacy", "setting": "Botrytis cinerea; 63 ppm", "value": 21, "unit": "%"}
    ]},
    {"compound": "Cn1cc(C(=O)Nc2ccccc2C2CC2C2CC2)c(C(F)F)n1", "note": "(centres unmarked) [sedaxane]", "values": [
      {"measurement": "Observed efficacy", "setting": "Botrytis cinerea; 0.25 ppm", "value": 41, "unit": "%"}
    ]},
    {"compound": "COC(=O)Nc1nc2ccccc2[nH]1", "note": "[Carbendazim, carbendazim]", "values": [
      {"measurement": "Observed efficacy", "setting": "Pyricularia oryzae; 0.25 ppm", "value": 15, "unit": "%"}
    ]},
    {"compound": "CO/C=C(/C(=O)OC)c1ccccc1Oc1cc(Oc2ccccc2C#N)ncn1", "note": "[Azoxystrobin, azoxystrobin]", "values": [
      {"measurement": "Observed efficacy", "setting": "Septoria tritici; 0.063 ppm", "value": 56, "unit": "%"}
    ]},
    {"compound": "Cc1ccc(-c2c(Cl)nc(C#N)n2S(=O)(=O)N(C)C)cc1", "note": "[Cyazofamid, cyazofamid]", "values": [
      {"measurement": "Observed efficacy", "setting": "Phytophthora infestans; 0.063 ppm", "value": 67, "unit": "%"}
    ]}
  ]
}
